From patent US5288720A, “Angiotensin II receptor blocking 2,3,6 substituted quinazolinones” (American Cyanamid Company, priority 1993, dated 1994)

Test system: ANGIOTENSIN II VASOPRESSOR RESPONSE
Assay: AII Challenge: blockade of angiotensin II vasopressor response in conscious SHR
Assay type: in vivo, rat (Conscious Male Okamoto-Aoki SHR)
Conditions: SHR n=2
Method in brief: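 Percent blockade is derived from the systolic pressure rise in mmHg, taking each rat's own predose response as 100%. Rats were conscious male Okamoto-Aoki SHR, 16-20 weeks, ~330 g, with aortic and caval cannulas under local procaine. Compound went i.v., i.p. or orally, then angiotensin II challenges (0.05 and 0.1 ug/kg i.v.) at 30-300 min.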

[1] = 3 mg/kg p.o., AII 0.05 mcg/kg IV, 30 min post dose
[2] = 3 mg/kg p.o., AII 0.05 mcg/kg IV, 60 min post dose
[3] = 3 mg/kg p.o., AII 0.05 mcg/kg IV, 90 min post dose
[4] = 3 mg/kg p.o., AII 0.05 mcg/kg IV, 120 min post dose
[5] = 3 mg/kg p.o., AII 0.05 mcg/kg IV, 180 min post dose
[6] = 3 mg/kg p.o., AII 0.1 mcg/kg IV, 30 min post dose
[7] = 3 mg/kg p.o., AII 0.1 mcg/kg IV, 60 min post dose
[8] = 3 mg/kg p.o., AII 0.1 mcg/kg IV, 90 min post dose
[9] = 3 mg/kg p.o., AII 0.1 mcg/kg IV, 120 min post dose
[10] = 3 mg/kg p.o., AII 0.1 mcg/kg IV, 180 min post dose
[11] = 10 mg/kg i.v., AII 0.05 mcg/kg IV, 30 min post dose
[12] = 10 mg/kg i.v., AII 0.05 mcg/kg IV, 60 min post dose
[13] = 10 mg/kg i.v., AII 0.05 mcg/kg IV, 90 min post dose
[14] = 10 mg/kg i.v., AII 0.05 mcg/kg IV, 120 min post dose
[15] = 10 mg/kg i.v., AII 0.05 mcg/kg IV, 180 min post dose
[16] = 10 mg/kg i.v., AII 0.05 mcg/kg IV, 240 min post dose
[17] = 10 mg/kg i.v., AII 0.05 mcg/kg IV, 300 min post dose
[18] = 10 mg/kg i.v., AII 0.1 mcg/kg IV, 30 min post dose
[19] = 10 mg/kg i.v., AII 0.1 mcg/kg IV, 60 min post dose
[20] = 10 mg/kg i.v., AII 0.1 mcg/kg IV, 90 min post dose
[21] = 10 mg/kg i.v., AII 0.1 mcg/kg IV, 120 min post dose
[22] = 10 mg/kg i.v., AII 0.1 mcg/kg IV, 180 min post dose
[23] = 10 mg/kg i.v., AII 0.1 mcg/kg IV, 240 min post dose
[24] = 10 mg/kg i.v., AII 0.1 mcg/kg IV, 300 min post dose
[25] = 3 mg/kg i.v., AII 0.05 mcg/kg IV, 30 min post dose
[26] = 3 mg/kg i.v., AII 0.05 mcg/kg IV, 60 min post dose
[27] = 3 mg/kg i.v., AII 0.05 mcg/kg IV, 90 min post dose
[28] = 3 mg/kg i.v., AII 0.05 mcg/kg IV, 120 min post dose
[29] = 3 mg/kg i.v., AII 0.05 mcg/kg IV, 180 min post dose
[30] = 3 mg/kg i.v., AII 0.05 mcg/kg IV, 240 min post dose
[31] = 3 mg/kg i.v., AII 0.05 mcg/kg IV, 300 min post dose
[32] = 3 mg/kg i.v., AII 0.1 mcg/kg IV, 30 min post dose
[33] = 3 mg/kg i.v., AII 0.1 mcg/kg IV, 60 min post dose
[34] = 3 mg/kg i.v., AII 0.1 mcg/kg IV, 90 min post dose
[35] = 3 mg/kg i.v., AII 0.1 mcg/kg IV, 120 min post dose
[36] = 3 mg/kg i.v., AII 0.1 mcg/kg IV, 180 min post dose
[37] = 3 mg/kg i.v., AII 0.1 mcg/kg IV, 240 min post dose
[38] = 3 mg/kg i.v., AII 0.1 mcg/kg IV, 300 min post dose
[39] = 3 mg/kg p.o., AII 0.05 mcg/kg IV, 240 min post dose
[40] = 3 mg/kg p.o., AII 0.1 mcg/kg IV, 240 min post dose

For `CCCCc1nc2ccc(C(OC)C3CCCN(C)C3=O)cc2c(=O)n1Cc1ccc(-c2ccccc2-c2nn[nH]n2)cc1` (single isomer, unassigned; isomer 1) [Example 42, 2-Butyl-6-methoxy(1-methyl-2-oxo-3-piperidinyl)methyl]-3-[[2' -1H-tetrazol-5-yl)[1,1'-biphenyl]-4-yl]methyl-4(3H)-quinazolinone isomer 1], which “% Inhibition of AII vasopressor response” value [1] is on record?
Its value is 19%.

And the “Average Change (systolic blood pressure response to AII)” value (“Average Change” below) [1]?
Its value is 32.5 mmHg.

And the “% Inhibition of AII vasopressor response” value [2]?
The value was 19%.

What about the “Average Change” value [2] of the same compound?
The value was 32.5 mmHg.

What about the “% Inhibition of AII vasopressor response” value [3] of the same compound?
The value was 50%.

What about the “Average Change” value [3] of the same compound?
The value was 20 mmHg.

And the “% Inhibition of AII vasopressor response” value [4]?
Its value is 19%.

And the “Average Change” value [4]?
Its value is 32.5 mmHg.

And the “% Inhibition of AII vasopressor response” value [5]?
The value was -2%.

And the “Average Change” value [5]?
Its value is 41 mmHg.

And the “% Inhibition of AII vasopressor response” value [6]?
The value was 22%.

And the “Average Change” value [6]?
Its value is 35 mmHg.

And the “% Inhibition of AII vasopressor response” value [7]?
The value was 22%.

And the “Average Change” value [7]?
The value was 35 mmHg.

And the “% Inhibition of AII vasopressor response” value [8]?
Its value is 13%.

And the “Average Change” value [8]?
The value was 39 mmHg.

And the “% Inhibition of AII vasopressor response” value [9]?
The value was 11%.

What about the “Average Change” value [9] of the same compound?
Its value is 40 mmHg.

And the “% Inhibition of AII vasopressor response” value [10]?
The value was 0%.

And the “Average Change” value [10]?
Its value is 45 mmHg.

And the “% Inhibition of AII vasopressor response” value [11]?
Its value is 100%.

What about the “Average Change” value [11] of the same compound?
The value was 0 mmHg.

And the “% Inhibition of AII vasopressor response” value [12]?
Its value is 86%.

What about the “Average Change” value [12] of the same compound?
Its value is 5 mmHg.

And the “% Inhibition of AII vasopressor response” value [13]?
The value was 93%.

What about the “Average Change” value [13] of the same compound?
The value was 2.5 mmHg.

And the “% Inhibition of AII vasopressor response” value [14]?
Its value is 93%.

And the “Average Change” value [14]?
The value was 2.5 mmHg.

And the “% Inhibition of AII vasopressor response” value [15]?
The value was 64%.

What about the “Average Change” value [15] of the same compound?
The value was 12.5 mmHg.

And the “% Inhibition of AII vasopressor response” value [16]?
The value was 43%.

What about the “Average Change” value [16] of the same compound?
Its value is 20 mmHg.

What about the “% Inhibition of AII vasopressor response” value [17] of the same compound?
Its value is 43%.

And the “Average Change” value [17]?
The value was 20 mmHg.

And the “% Inhibition of AII vasopressor response” value [18]?
The value was 100%.

And the “Average Change” value [18]?
The value was 0 mmHg.

What about the “% Inhibition of AII vasopressor response” value [19] of the same compound?
Its value is 82%.

What about the “Average Change” value [19] of the same compound?
The value was 7.5 mmHg.

And the “% Inhibition of AII vasopressor response” value [20]?
Its value is 76%.

What about the “Average Change” value [20] of the same compound?
The value was 10 mmHg.

What about the “% Inhibition of AII vasopressor response” value [21] of the same compound?
The value was 65%.

And the “Average Change” value [21]?
Its value is 15 mmHg.

What about the “% Inhibition of AII vasopressor response” value [22] of the same compound?
The value was 59%.

And the “Average Change” value [22]?
Its value is 17.5 mmHg.

And the “% Inhibition of AII vasopressor response” value [23]?
Its value is 65%.

And the “Average Change” value [23]?
The value was 15 mmHg.

And the “% Inhibition of AII vasopressor response” value [24]?
The value was 47%.

And the “Average Change” value [24]?
The value was 22.5 mmHg.

Which results are given for `CCCCc1nc2ccc(C(O)C3CCN(C)C3=O)cc2c(=O)n1Cc1ccc(-c2ccccc2-c2nn[nH]n2)cc1` (single isomer, unassigned; isomer 1) [Example 32, 2-Butyl-6-[hydroxy(1-methyl-2-oxo-3-pyrrolidinyl)methyl]-3-[[2'-(1e,uns/H/ -tetrazol-5-yl)[1,1'-biphenyl]-4-yl]methyl]-4(3H)-quinazolinone isomer 1]?
% Inhibition of AII vasopressor response [25]: 100%; Average Change (systolic blood pressure response to AII) [25]: 0 mmHg; % Inhibition of AII vasopressor response [26]: 89%; Average Change (systolic blood pressure response to AII) [26]: 2.5 mmHg; % Inhibition of AII vasopressor response [27]: 89%; Average Change (systolic blood pressure response to AII) [27]: 2.5 mmHg; % Inhibition of AII vasopressor response [28]: 89%; Average Change (systolic blood pressure response to AII) [28]: 2.5 mmHg; % Inhibition of AII vasopressor response [29]: 68%; Average Change (systolic blood pressure response to AII) [29]: 7.5 mmHg; % Inhibition of AII vasopressor response [30]: 26%; Average Change (systolic blood pressure response to AII) [30]: 17.5 mmHg; % Inhibition of AII vasopressor response [31]: -13%; Average Change (systolic blood pressure response to AII) [31]: 26.5 mmHg; % Inhibition of AII vasopressor response [32]: 100%; Average Change (systolic blood pressure response to AII) [32]: 0 mmHg; % Inhibition of AII vasopressor response [33]: 96%; Average Change (systolic blood pressure response to AII) [33]: 1.5 mmHg; % Inhibition of AII vasopressor response [34]: 88%; Average Change (systolic blood pressure response to AII) [34]: 5 mmHg; % Inhibition of AII vasopressor response [35]: 94%; Average Change (systolic blood pressure response to AII) [35]: 2.5 mmHg; % Inhibition of AII vasopressor response [36]: 53%; Average Change (systolic blood pressure response to AII) [36]: 20 mmHg; % Inhibition of AII vasopressor response [37]: 24%; Average Change (systolic blood pressure response to AII) [37]: 32.5 mmHg; % Inhibition of AII vasopressor response [38]: 0%; Average Change (systolic blood pressure response to AII) [38]: 42.5 mmHg; % Inhibition of AII vasopressor response [1]: 0%; Average Change (systolic blood pressure response to AII) [1]: 32.5 mmHg; % Inhibition of AII vasopressor response [2]: 46%; Average Change (systolic blood pressure response to AII) [2]: 17.5 mmHg; % Inhibition of AII vasopressor response [3]: 62%; Average Change (systolic blood pressure response to AII) [3]: 12.5 mmHg; % Inhibition of AII vasopressor response [4]: 46%; Average Change (systolic blood pressure response to AII) [4]: 17.5 mmHg; % Inhibition of AII vasopressor response [5]: 11%; Average Change (systolic blood pressure response to AII) [5]: 29 mmHg; % Inhibition of AII vasopressor response [39]: 31%; Average Change (systolic blood pressure response to AII) [39]: 22.5 mmHg; % Inhibition of AII vasopressor response [6]: 27%; Average Change (systolic blood pressure response to AII) [6]: 27.5 mmHg; % Inhibition of AII vasopressor response [7]: 27%; Average Change (systolic blood pressure response to AII) [7]: 27.5 mmHg; % Inhibition of AII vasopressor response [8]: 40%; Average Change (systolic blood pressure response to AII) [8]: 22.5 mmHg; % Inhibition of AII vasopressor response [9]: 28%; Average Change (systolic blood pressure response to AII) [9]: 27 mmHg; % Inhibition of AII vasopressor response [10]: 13%; Average Change (systolic blood pressure response to AII) [10]: 32.5 mmHg; % Inhibition of AII vasopressor response [40]: 23%; Average Change (systolic blood pressure response to AII) [40]: 29 mmHg
